Structures can show the parent of a compound that is named as a salt.
Assays:
sonic hedgehog pathway [1] = test: Hedgehog reporter assay (gli-luciferase) in S12 cells; type: cell-based; conditions: S12 mouse embryonic mesenchymal cells, read-out: Mouse S12 Avg. EC50
Source text: (§1) Mouse (TM3: mouse Leydig cells; S12: mouse embryonic mesenchymal cells) and human (Daoy: human medulloblastoma cell; HepM: human embryonic palatal mesenchymal cell) cell lines are used to screen small molecules for their ability to modulate the activity of the sonic hedgehog pathway (Table 1, Table 2, and Table 3). Stable hedgehog pathway reporter cell lines are established by specific antibiotic selection following transfection of a reporter plasmid containing a luciferase gene located directly downstream from the gli promoter. Consequently, any observable changes in cellular luciferase activity may be attributed to changes in sonic hedgehog pathway activity in mouse and human cells, respectively, since gli is the major by-product of this pathway. To calculate activity, we generate an eleven point dose curve for each compound using 1:3 dilutions in 96 well assay plates. Each plate tested also contains low and high control to establish maximal pathway activation so to establish/compare a percentage activation of each tested compound (AMAX) on respective plates. Also we calculate EC50 values, or a concentration where the pathway will be exactly 50% activated, for each tested compound to determine potency. In these cell lines, compounds that register >20% AMAX values are considered active.
(§2) Stable hedgehog pathway reporter cell lines are established following specific antibiotic selection following transfection of a reporter plasmid
(§3) In short, typically cells are plated in MicroTiter-plates at 10,000-20,000 cells per well, in growth media (containing 10%-20% FBS). After 48-72 hrs (HGL and DGL respectively) the media in the assay plates is switched to low-serum containing media (0.5% FBS). At that time compounds are added (at 1-5 μM) to the assay plates, in the presence or absence of hedgehog protein (octyl-modified version; 1-5 ng/ml). After another 24 hrs of incubation, the media from the assay plates is discarded and replaced with luciferase assay-mix. Subsequently, plates are incubated at RT for ˜15-30 mins and then read in a luminometer. [note: addition of the Hedgehog protein, although not critical, will sensitize the assay allowing the identification of weak actives].

sonic hedgehog pathway [2] = test: Human hedgehog reporter assay Daoy-GliLuc (DGL); type: cell-based
Source text: as §1, with “plates.” for “plates. Also we calculate EC50 values, or a concentration where the pathway will be exactly 50% activated, for each tested compound to determine potency. In these cell lines, compounds that register >20% AMAX values are considered active.”
as §2, §3

[3] = Daoy human medulloblastoma cells, gli-luciferase reporter, read-out: Human Daoy (Gli-Luc) Avg. EC50
[4] = Homo sapiens, Daoy, read-out: Human Daoy (Gli-Luc) Avg. EC50 (nM)

| EC50 (sonic hedgehog pathway [2]; [3]) | Compound | EC50 (sonic hedgehog pathway [1]) | EC50 (sonic hedgehog pathway [2]; [4]) |
| --- | --- | --- | --- |
| < 50 nM | CNC1CCC(N(Cc2cc(-c3cc[n+]([O-])cc3)ccc2OC)C(=O)c2sc3c(F)ccc(F)c3c2Cl)CC1 (centres unmarked) [Compound 374, 4-(3-((3-chloro-4,7-difluoro-N-((1s,4s)-4-(methylamino)cyclohexyl)benzo[b]thiophene-2-carboxamido)methyl)-4-methoxyphenyl)pyridine 1-oxide] | < 50 nM | – |
| < 50 nM | CN[C@H]1CC[C@H](N(Cc2cc(-c3cccnc3F)ccc2OC)C(=O)c2sc3c(F)ccc(F)c3c2Cl)CC1 [Compound 378, 3-Chloro-4,7-difluoro-benzo[b]thiophene-2-carboxylic acid[5-(2-fluoro-pyridin-3-yl)-2-methoxy-benzyl]-(4-methylamino-cyclohexyl)-amide] | < 50 nM | – |
| < 50 nM | CN[C@H]1CC[C@H](N(Cc2cc(-c3ccc(F)nc3)ccc2OC)C(=O)c2sc3c(F)ccc(F)c3c2Cl)CC1 [Compound 379, 3-Chloro-4,7-difluoro-benzo[b]thiophene-2-carboxylic acid[5-(6-fluoro-pyridin-3-yl)-2-methoxy-benzyl]-(4-methylamino-cyclohexyl)-amide] | < 50 nM | – |
| < 50 nM | CN[C@H]1CC[C@H](N(Cc2cc(-c3cncc(F)c3)ccc2OC)C(=O)c2sc3c(F)ccc(F)c3c2Cl)CC1 [Compound 380, 3-Chloro-4,7-difluoro-benzo[b]thiophene-2-carboxylic acid[5-(5-fluoro-pyridin-3-yl)-2-methoxy-benzyl]-(4-methylamino-cyclohexyl)-amide] | < 50 nM | – |
| < 50 nM | CN[C@H]1CC[C@H](N(Cc2cc(-c3cccnc3F)ccc2OC)C(=O)c2sc3cccc(F)c3c2Cl)CC1 [Compound 381] | < 50 nM | – |
| < 50 nM | CN[C@H]1CC[C@H](N(Cc2cc(-c3ccc(F)nc3)ccc2OC)C(=O)c2sc3cccc(F)c3c2Cl)CC1 [Compound 382, 3-Chloro-4-fluoro-benzo[b]thiophene-2-carboxylic acid[5-(6-fluoro-pyridin-3-yl)-2-methoxy-benzyl]-(4-methylamino-cyclohexyl)-amide] | < 50 nM | – |
| < 50 nM | CN[C@H]1CC[C@H](N(Cc2cc(-c3cncc(F)c3)ccc2OC)C(=O)c2sc3cccc(F)c3c2Cl)CC1 [Compound 383, 3-chloro-4-fluoro-N-(5-(5-fluoropyridin-3-yl)-2-methoxybenzyl)-N-((1s,4s)-4-(methylamino)cyclohexyl)benzo[b]thiophene-2-carboxamide] | < 50 nM | – |
| < 50 nM | CNC1CCC(N(Cc2cc(-c3ccnc(F)c3)ccc2OC)C(=O)c2sc3c(F)ccc(F)c3c2Cl)CC1 (centres unmarked) [Compound 384, 3-Chloro-4,7-difluoro-benzo[b]thiophene-2-carboxylic acid[5-(2-fluoro-pyridin-4-yl)-2-methoxy-benzyl]-(4-methylamino-cyclohexyl)-amide] | < 50 nM | – |
| < 50 nM | CNC1CCC(N(Cc2cc(-c3ccnc(F)c3)ccc2OC)C(=O)c2sc3cccc(F)c3c2Cl)CC1 (centres unmarked) [Compound 385, 3-Chloro-4-fluoro-benzo[b]thiophene-2-carboxylic acid[5-(2-fluoro-pyridin-4-yl)-2-methoxy-benzyl]-(4-methylamino-cyclohexyl)-amide] | < 50 nM | – |
| < 50 nM | CN[C@H]1CC[C@@H](N(Cc2cc(-c3ccncc3F)ccc2OC)C(=O)c2sc3c(F)ccc(F)c3c2Cl)CC1 [Compound 386, 3-Chloro-4,7-difluoro-benzo[b]thiophene-2-carboxylic acid[5-(3-fluoro-pyridin-4-yl)-2-methoxy-benzyl]-(4-methylamino-cyclohexyl)-amide] | < 50 nM | – |
| < 50 nM | CNC1CCC(N(Cc2cc(-c3ccncc3F)ccc2OC)C(=O)c2sc3cccc(F)c3c2Cl)CC1 (centres unmarked) [Compound 387, 3-Chloro-4-fluoro-benzo[b]thiophene-2-carboxylic acid[5-(3-fluoro-pyridin-4-yl)-2-methoxy-benzyl]-(4-methylamino-cyclohexyl)-amide] | < 50 nM | – |
| – | CCS(=O)(=O)c1ccc(-c2ccc(OC)c(CN(C(=O)c3sc4c(F)ccc(F)c4c3Cl)C3CCC(NC)CC3)c2)cc1 (centres unmarked) [Compound 389, 3-Chloro-4,7-difluoro-benzo[b]thiophene-2-carboxylic acid (4′-ethanesulfonyl-4-methoxy-biphenyl-3-ylmethyl)-(4-methylamino-cyclohexyl)-amide hydrochloride] | < 50 nM | < 50 nM |
| – | COc1ccc(-c2ccc(S(C)(=O)=O)cc2)cc1CN(C(=O)c1sc2c(F)ccc(F)c2c1Cl)C1CCC(N)CC1 (centres unmarked) [Compound 390, 3-Chloro-4,7-difluoro-benzo[b]thiophene-2-carboxylic acid (4-amino-cyclohexyl)-(4′-methanesulfonyl-4-methoxy-biphenyl-3-ylmethyl)-amide hydrochloride] | < 50 nM | < 50 nM |
| – | CNC1CCC(N(Cc2cc(-c3ccc(S(=O)(=O)N(C)C)cc3)ccc2OC)C(=O)c2sc3c(F)ccc(F)c3c2Cl)CC1 (centres unmarked) [Compound 391, 3-Chloro-4,7-difluoro-benzo[b]thiophene-2-carboxylic acid (4′-dimethylsulfamoyl-4-methoxy-biphenyl-3-ylmethyl)-(4-methylamino-cyclohexyl)-amide trifluoroacetate] | < 50 nM | < 50 nM |
| < 50 nM | CNC1CCC(N(Cc2cc(-c3ccncc3)ccc2C)C(=O)c2sc3c(F)ccc(F)c3c2Cl)CC1 (centres unmarked) [Compound 392, 3-Chloro-4,7-difluoro-benzo[b]thiophene-2-carboxylic acid (4-methylamino-cyclohexyl)-(2-methyl-5-pyridin-4-yl-benzyl)-amide bis(trifluoroacetate)] | < 50 nM | – |
| < 50 nM | CN[C@H]1CC[C@@H](N(Cc2cc(OC)cc(-c3ccncc3)c2)C(=O)C2=C(Cl)c3c(F)ccc(F)c3C2)CC1 [Compound 394, 3-Chloro-4,7-difluoro-benzo[b]thiophene-2-carboxylic acid(3-methoxy-5-pyridin-4-yl-benzyl)-(4-methylamino-cyclohexyl)-amide bis(trifluoroacetate)] | < 50 nM | – |
| 50 to 250 nM | CCc1ccc(-c2ccncc2)cc1CN(C(=O)C1=C(Cl)c2c(F)ccc(F)c2C1)[C@H]1CC[C@@H](NC)CC1 [Compound 395, 3-Chloro-4,7-difluoro-benzo[b]thiophene-2-carboxylic acid(2-ethyl-5-pyridin-4-yl-benzyl)-(4-methylamino-cyclohexyl)-amide dihydrochloride] | 50 to 250 nM | – |

| Compound | EC50 (sonic hedgehog pathway [2]; [3]) | EC50 (sonic hedgehog pathway [1]) | EC50 (sonic hedgehog pathway [2]; [4]) |
| --- | --- | --- | --- |
| CNC1CCC(N(Cc2cc(-c3ccc(S(N)(=O)=O)cc3)ccc2OC)C(=O)c2sc3c(F)ccc(F)c3c2Cl)CC1 (centres unmarked) [Compound 388, 3-Chloro-4,7-difluoro-benzo[b]thiophene-2-carboxylic acid(4-methoxy-4′-sulfamoyl-biphenyl-3-ylmethyl)-(4-methylamino-cyclohexyl)-amide hydrochloride] | < 50 nM | < 50 nM | – |
| C=Cc1ccc(-c2ccc(OC)c(CN(C(=O)c3sc4c(F)ccc(F)c4c3Cl)[C@H]3CC[C@H](N)CC3)c2)cc1 [Compound 393, N-((1r,4r)-4-aminocyclohexyl)-3-chloro-4,7-difluoro-N-((4-methoxy-4′-vinylbiphenyl-3-yl)methyl)benzo[b]thiophene-2-carboxamide] | 50 to 250 nM | 50 to 250 nM | – |
